Biological target: T1, Renin (Homo sapiens, UniProt P00797)
T1 sequence (P00797 whole entry): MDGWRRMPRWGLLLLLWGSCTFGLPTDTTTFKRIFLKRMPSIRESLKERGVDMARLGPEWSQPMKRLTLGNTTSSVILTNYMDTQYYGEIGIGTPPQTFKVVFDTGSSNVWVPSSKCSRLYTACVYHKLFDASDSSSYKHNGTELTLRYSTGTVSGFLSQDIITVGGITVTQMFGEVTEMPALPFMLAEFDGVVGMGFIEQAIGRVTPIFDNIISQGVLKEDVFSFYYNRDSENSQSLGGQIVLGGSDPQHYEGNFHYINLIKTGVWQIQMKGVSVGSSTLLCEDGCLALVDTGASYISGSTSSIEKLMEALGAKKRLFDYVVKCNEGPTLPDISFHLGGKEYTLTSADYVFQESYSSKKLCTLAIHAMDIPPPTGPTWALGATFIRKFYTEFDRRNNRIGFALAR
Test: […]
Type: cell-free, Plasma

IC50 [nM] | Compound
12 | CC(C)C[C@H](NC(=O)[C@H](Cc1ccccc1)NC(=O)CC1CS(=O)(=O)c2ccccc21)C(=O)N[C@@H](CC1CCCCC1)[C@@H](O)CC(=O)NCCCn1ccnc1 (some centres not stated)
55 | CC(C)C[C@H](NC(=O)[C@H](Cc1ccccc1)NC(=O)CC1CS(=O)(=O)c2ccccc21)C(=O)N[C@@H](CC1CCCCC1)[C@@H](O)CC(=O)NCCCC(=O)O (some centres not stated)
95 | CC(C)C[C@H](NC(=O)[C@H](Cc1ccccc1)NC(=O)CC1CS(=O)(=O)c2ccccc21)C(=O)N[C@@H](CC1CCCCC1)[C@@H](O)CC(=O)NCCCN(C)C (some centres not stated)
10 | CC(C)CCNC(=O)C[C@H](O)[C@H](CC1CCCCC1)NC(=O)[C@H](CC(C)C)NC(=O)[C@H](Cc1ccccc1)NC(=O)CC1CS(=O)(=O)c2ccccc21 (some centres not stated)
14 | CC(C)C[C@H](NC(=O)[C@H](Cc1ccccc1)NC(=O)CCCN1C(=O)CSc2ccncc21)C(=O)N[C@@H](CC1CCCCC1)[C@@H](O)CC(=O)NCCCn1ccnc1
8 | CC(C)C[C@H](NC(=O)[C@H](Cc1ccccc1)NC(=O)CCN1C(=O)CS(=O)(=O)c2ccncc21)C(=O)N[C@@H](CC1CCCCC1)[C@@H](O)CC(=O)NCCCn1ccnc1
20 | CC(C)C[C@H](NC(=O)[C@H](Cc1ccccc1)NC(=O)CCN1C(=O)COc2ccncc21)C(=O)N[C@@H](CC1CCCCC1)[C@@H](O)CC(=O)NCCCn1ccnc1
41 | CC(C)C[C@H](NC(=O)[C@H](Cc1ccccc1)NC(=O)CC1CS(=O)(=O)c2ccccc21)C(=O)N[C@@H](CC1CCCCC1)[C@@H](O)CC(=O)NCCn1ccnc1 (some centres not stated)
34 | CC(C)C[C@H](NC(=O)[C@H](Cc1ccccc1)NC(=O)CC1CS(=O)(=O)c2ccccc21)C(=O)N[C@@H](CC1CCCCC1)[C@@H](O)CC(=O)NCCCc1cccnc1 (some centres not stated)
4 | CC(C)C[C@H](NC(=O)[C@H](Cc1ccccc1)NC(=O)CCN1C(=O)CSc2cnccc21)C(=O)N[C@@H](CC1CCCCC1)[C@@H](O)CC(=O)NCCCn1ccnc1
38 | CC(C)C[C@H](NC(=O)[C@H](Cc1ccccc1)NC(=O)CN1C(=O)CSc2ccncc21)C(=O)N[C@@H](CC1CCCCC1)[C@@H](O)CC(=O)NCCCn1ccnc1
170 | CC(C)C[C@H](NC(=O)[C@H](Cc1ccccc1)NC(=O)CC1CS(=O)(=O)c2ccccc21)C(=O)N[C@@H](CC1CCCCC1)[C@@H](O)CC(=O)NCCN1CCOCC1 (some centres not stated)

From ChEMBL document CHEMBL1150467, “The identification of a novel renin inhibitor of equivalent efficacy following oral or intravenous administration” (Bioorg Med Chem Lett, 1994)
